Experimental data as given in patent US20130210901A1, “METHOD OF TREATING NEURODEGENERATIVE DISEASES” (Yissum Research Development Company of the Hebrew …, priority 2010, published 2013).
Where two headings read alike, the source gives them in different places.

Experiments:
hnRNP A/B = hnRNP A/B expression in primary neuronal cultures incubated with cholinergic agonist; type: cell-based, mouse; conditions: 10 μM, 48 hours
Experimental: Primary mixed cortical cultures: Primary mouse cultures of neurons and glia were produced from E16 embryos. Pregnant mice were anesthetized with isoflurane and sacrificed by cervical dislocation. The uterus was removed and placed on ice. After 5 minutes the heads were dissected under binocular and cortices were removed, placed in cold DMEM, and triturated with a scalpel and up and down pippeting. The medium was replaced with neurobasal medium supplemented with 1:50 B27, 2 mM L-Glutamine (Invitrogen, Grand Island, N.Y.), 50 U penicillin and 50 μg/ml streptomycin (Biological Industries, Beit-haemek, Israel), cells were counted and plated in 12 or 24-well plated pre-treated with 10 μg/ml poly-lysine (Sigma, St. Louis). For confocal microscopy cells were plated on glass cover slips similarly treated.
Immunohistochemistry and immunofluorescence: Paraffin slides were rehydrated by washing in xylene and serial dilutions of ethanol in water. Heat-induced antigen retrieval involved boiling slides in 10 mM pH 6 citrate buffer for 10 minutes. Hydrogen peroxide methanol quench was performed for slides later developed with 3,3′-Diaminobenzidine tetrahydrochloride (DAB). […]

miRNA-211 = assay: miRNA expression in temporal cortex 48 hours after muscarinic agonist injection (RT-PCR); type: in vivo, mouse; conditions: 48 hours after injections
Experimental: (§1) β-actin and GAPDH were used as reference transcripts. Annealing temperature was 60° C. for all primers. Serial dilution of samples served to evaluate primers efficiency and the appropriate cDNA concentration that yields linear changes. -RT controls verified lack of genomic DNA. miRNA quantification using The TaqMan miRNA Assays (Applied Biosystems) was conducted in two-step RT-PCR kit according to the manufacturer's instructions.

miRNA-132 = assay: as above; type: in vivo, mouse; conditions: 48 hours after injections
Experimental: as §1

miR-211 = assay: Antisense blockage of miR-211 in cultured N9 cells, hnRNP A/B levels; type: cell-based

C[N+](C)(C)CCOC(N)=O [carbachol]
expression of hnRNP A/B (hnRNP A/B): increased

CC[C@@H]1C(=O)OC[C@@H]1Cc1cncn1C [muscarinic agonist, pilocarpine]
levels of miRNA-211 (miRNA-211): reduced | levels of miRNA-132 (miRNA-132): increased

Antisense oligonucleotides to miR-211: locked nucleic acid oligonucleotide complementary to miR-211; miR211 antagonist e.g. SEQ ID NO: 87 (antisense AGGCGAAGGATGACAAAGGGAA; locked nucleic acid oligonucleotide, pattern not given here)
hnRNP A/B levels (miR-211): increased | hnRNP A/B levels (miR-211; listed as locked nucleic acid complementary oligonucleotide): increases
